Measurements reported in patent EP4005565A1 (priority 2020, dated 2022).
Where a name gives a salt, the structure may show the parent alone. Read-outs that look alike come from different tables or passages of the source.

How the values were obtained:
[1] = system: SARS-CoV-2 (viral strain INMI1); test: Antiviral activity assay with nucleoprotein readout (ELISA) in infected Vero E6 cells; format: cell-based; conditions: Severe acute respiratory syndrome coronavirus 2, Vero C1008, 72 h, read-out: IC50, SARS-CoV-2 replication (virus nucleoprotein in % of infected untreated control)
Method: The cell line is routinely maintained in DMEM supplemented with 1% glutamine, 1% penicillin/streptomycin and 10% fetal bovine serum and can be infected with SARS-CoV-2 (Ogando et al., 2020).
Exponentially growing Vero E6 cells were seeded into a 96-well plate at their optimal density in complete medium. […] Drug dilutions were performed in culture medium. Replicates for each concentration point were examined. At the end of the incubation period, antiviral activity was examined through both ELISA (Sino Biological, quantifying SARS-CoV-2 nucleoprotein) as well as a cytoprotection assay (toxicity effect examined through an inverted microscope). An inhibitory concentration 50% (IC50) value was calculated through interpolation of the dose-response curves generated.
The nucleoprotein was quantified by ELISA. Results are means ± SD of 2-4 experiments.

[2] = molecular target: binding of the viral spike protein to ACE2 (UniProt P0DTC2+Q9BYF1); conditions: Fink et al. in prep; cited from earlier work
Sequence of binding of the viral spike protein to ACE2 (Q9BYF1 18-805, one chain of several): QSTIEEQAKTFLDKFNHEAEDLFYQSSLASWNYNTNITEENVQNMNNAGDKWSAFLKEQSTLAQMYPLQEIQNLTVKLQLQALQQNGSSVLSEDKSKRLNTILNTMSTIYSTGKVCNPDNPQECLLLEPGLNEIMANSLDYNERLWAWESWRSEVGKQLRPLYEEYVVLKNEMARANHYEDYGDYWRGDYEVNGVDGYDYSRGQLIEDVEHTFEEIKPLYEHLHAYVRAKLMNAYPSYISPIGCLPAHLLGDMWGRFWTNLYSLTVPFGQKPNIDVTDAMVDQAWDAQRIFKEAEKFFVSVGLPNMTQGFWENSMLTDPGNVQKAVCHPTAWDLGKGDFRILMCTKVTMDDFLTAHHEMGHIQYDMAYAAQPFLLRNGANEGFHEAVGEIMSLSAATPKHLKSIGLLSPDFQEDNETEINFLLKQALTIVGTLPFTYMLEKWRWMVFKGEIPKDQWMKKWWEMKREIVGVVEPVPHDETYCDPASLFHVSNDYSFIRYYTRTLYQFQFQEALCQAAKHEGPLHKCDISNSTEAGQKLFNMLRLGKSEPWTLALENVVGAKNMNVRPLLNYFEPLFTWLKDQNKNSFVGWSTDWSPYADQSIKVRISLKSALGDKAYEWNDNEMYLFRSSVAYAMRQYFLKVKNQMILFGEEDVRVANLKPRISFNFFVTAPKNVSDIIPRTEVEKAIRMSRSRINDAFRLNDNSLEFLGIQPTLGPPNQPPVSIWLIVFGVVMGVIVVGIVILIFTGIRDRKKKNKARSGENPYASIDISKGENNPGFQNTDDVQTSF

[3] = cited from earlier work
influenza A [4] = conditions: inhalation, cited from earlier work
influenza A [5] = conditions: inhaled at 6mg/kg/d (Fenton et al., 1977); cited from earlier work
[6] = 7 volunteers and 3 influenza patients; 1.5%, up to 9h, 2x6h, 10-11h in 3d (Knight et al., 1979); cited from earlier work
[7] = cited from earlier work; remark: listed apart in the source
lysosomal uptake = conditions: at 10µM (Smieszek et al., 2020); cited from earlier work
influenza A [8] = conditions: 20 influenza A patients; inhalative 1%, 20mg/d, 3x20min, 4d (Hayden et al., 1980); cited from earlier work
SARS-CoV-2 = test: Treatment of a SARS-CoV-2 positive patient with nebulized amantadine hemisulfate (Example 2); format: in vivo; conditions: 0.4mg/ml inhaled every 2 h for 30min 6 times per day, 7 days
Excerpt: A patient who had contact 2 days ago with a colleague who turned out to be SARS-CoV-2 positive the day after the meeting, consults their primary care physician. […] The RT-PCR test for SARS-CoV-2 of a nasal swab is also positive; HR is 78/min, BP is 120/80mmHg, BR is 15/min, peripheral O2 saturation is 97%, no further health issues are diagnosed. The patient is diagnosed with Covid-19 and isolated in home quarantine with daily doctor calls to evaluate their health status. […] The treatment is continued for 7 days. […] They recover within 14 days after treatment start.

Molecule: NC12CC3CC(CC(C3)C1)C2 [amantadine hydrochloride]
- IC50 [1]: 88 µM

Molecule: NC12CC3CC(CC(C3)C1)C2 [amantadine, 1-Adamantylamine]
- Interference with the binding of the viral spike protein to ACE2 on target cells [2]: can be ruled out
- serum concentrations in intoxication case ([3]; human, in vivo): 15.9 µM
- plasma concentration at which aggressive behaviour was observed ([3]; patients, plasma): 5.5 to 6.6 µM
- plasma concentration at which depression and confusion were observed ([3]; patients, plasma): 19.9 µM
- plasma concentration at which seizures were observed ([3]; patients, plasma): 13.2 µM
- virus load (influenza A [4]; 40 mg/d retained dose (Wilson et al., 1980)): reduced virus load
- effect on survival (influenza A [4]; 22h/day, 4mg/d retained dose (Walker et al., 1976)): positive effect on survival
- virus load (influenza A [5]): reduced virus load
- safety of inhalative administration [6]: safe and irritation-free
- plasma concentration after inhalative administration ([7]; healthy human volunteers, inhalation (Hayden et al., 1979)): 0.13 µM
- plasma concentrations ([7]; patients receiving regularly 600 mg orally per day (Brenner et al., 1989)): up to 14.6 µM
- reduced lysosomal uptake (lysosomal uptake): 50%
- symptoms (influenza A [8]): improved symptoms
- virus load (influenza A [8]): reduced virus load

Molecule: amantadine hemisulfate
- breathing problems during treatment (SARS-CoV-2): does not suffer from breathing problems
- fever during treatment (SARS-CoV-2): transiently minor fever
- time to recovery after treatment start (SARS-CoV-2): ≤ 14 days
